Like-named read-outs stand apart in the source and are kept apart here.
Tests used:
[1] = Stability of orelabrutinib in rat plasma under storage and analytical conditions; format: in vitro ADME; conditions: for Measured concentration, Mean ± SD / RE (relative error vs nominal): n = 5
Experimental: To investigate the stability of orelabrutinib in rat plasma, QC plasma samples of three concentrations were placed in different environments to examine the short-term, long-term, three freeze-thaw cycles and stability at 10°C. Short-term stability was determined by placing plasma samples at room temperature for at least 3 h. Long-term stability was determined by testing plasma samples after 21 days of storage at −80°C. The stability of the plasma samples was evaluated by measuring the stability of three freeze-thaw cycles from freezing (−80°C) to thawing (room temperature) three times. In addition, the stability was determined by storing the prepared plasma samples in an autosampler (10°C) for 4 h.

[2] = parameters: method as in Zhang et al., 2020; conditions: oral, ref Zhang et al., 2020, cited from earlier work
[3] = Pharmacokinetic study in rats after single oral dose (UPLC-MS/MS, non-compartmental analysis); format: in vivo; conditions: male, Sprague-Dawley, rat, plasma, single oral dose of 10 mg/kg, n = 6, mean ± SD
Text: Six male Sprague-Dawley (SD) Rats (weighing 250 ± 20 g) were obtained from the Laboratory Animal Center of The First Affiliated Hospital of Wenzhou Medical University (Zhejiang, China). They were housed in an environmentally controlled rearing chamber and given food and water that met the standard for 1 week. The animal experiment was approved by the Ethics Committee for the Protection and Use of Laboratory Animals of The First Affiliated Hospital of Wenzhou Medical University (Zhejiang, China).
The rats were fasted for 12 h before the start of the experiment and were given free access to water. Oral gavage was administered to rats at a dose of 10 mg/kg of orelabrutinib dissolved in 0.5% sodium carboxymethylcellulose (CMC-Na). Blood was collected at different collection points at 0.333, 0.667, 1, 1.5, 2, 3, 4, 6, 8, 12, 24 and 48 h after administration. After collected, blood in centrifuge tube was centrifuged for 10 min at 13,000 × g at room temperature, and 100 μl of plasma was separated and stored at −80°C prior to analysis. The concentrations of the analyte were determined using this validated UPLC-MS/MS method, while the non-compartmental model was analyzed using DAS 2.0 software (Drug and Statistical Software of the Shanghai Mathematical Pharmacology Professional Committee, China), and pharmacokinetic parameters were calculated.

[4] = prepared plasma samples, autosampler 10°C for 4 h, nominal 2 ng/ml
[5] = prepared plasma samples, autosampler 10°C for 4 h, nominal 200 ng/ml
[6] = prepared plasma samples, autosampler 10°C for 4 h, nominal 1600 ng/ml
[7] = rat plasma, 21 days at −80°C, nominal 2 ng/ml
[8] = rat plasma, 21 days at −80°C, nominal 200 ng/ml
[9] = rat plasma, 21 days at −80°C, nominal 1600 ng/ml
[10] = rat plasma, room temperature at least 3 h, nominal 2 ng/ml
[11] = rat plasma, room temperature at least 3 h, nominal 200 ng/ml
[12] = rat plasma, three freeze-thaw cycles (−80°C to room temperature), nominal 2 ng/ml
[13] = rat plasma, three freeze-thaw cycles (−80°C to room temperature), nominal 200 ng/ml
[14] = rat plasma, three freeze-thaw cycles (−80°C to room temperature), nominal 1600 ng/ml

Measured concentration, Mean ± SD [1, 4]: 2.0 ± 0.1 ng/mL
RE (relative error vs nominal) [1, 4]: −0.2%
Measured concentration, Mean ± SD [1, 5]: 208.0 ± 5.3 ng/mL
RE (relative error vs nominal) [1, 5]: 4.0%
Measured concentration, Mean ± SD [1, 6]: 1649.2 ± 25.3 ng/mL
RE (relative error vs nominal) [1, 6]: 3.1%
Measured concentration, Mean ± SD [1, 7]: 2.1 ± 0.1 ng/mL
RE (relative error vs nominal) [1, 7]: 5.4%
Measured concentration, Mean ± SD [1, 8]: 212.6 ± 7.3 ng/mL
RE (relative error vs nominal) [1, 8]: 6.3%
Measured concentration, Mean ± SD [1, 9]: 1389.2 ± 147.3 ng/mL
RE (relative error vs nominal) [1, 9]: −13.2%
Measured concentration, Mean ± SD [1, 10]: 2.1 ± 0.1 ng/mL
RE (relative error vs nominal) [1, 10]: 6.1%
Measured concentration, Mean ± SD [1, 11]: 199.3 ± 4.8 ng/mL
RE (relative error vs nominal) [1, 11]: −0.4%
Measured concentration, Mean ± SD ([1]; rat plasma, room temperature at least 3 h, nominal 1600 ng/ml): 1603.9 ± 24.6 ng/mL
Measured concentration, Mean ± SD [1, 12]: 2.0 ± 0.1 ng/mL
RE (relative error vs nominal) [1, 12]: 1.0%
Measured concentration, Mean ± SD [1, 13]: 220.3 ± 8.5 ng/mL
RE (relative error vs nominal) [1, 13]: 10.2%
Measured concentration, Mean ± SD [1, 14]: 1773.7 ± 57.6 ng/mL
RE (relative error vs nominal) [1, 14]: 10.9%
Stability in plasma samples (in words) ([1]; rat plasma, room temperature, 10°C, three freeze (−80°C)/thaw (RT) cycles, −80°C for 21 days): stable
AUC(0-inf) [3]: 3.6 ± 1.54 µg·h/mL
AUC(0-t) [3]: 3.59 ± 1.54 µg·h/mL
Cmax [3]: 1.93 ± 1.03 µg/mL
Tmax [3]: 0.56 ± 0.17 h
half-life [3]: 8.25 ± 5.64 h
SMILES: C=CC(=O)N1CCC(c2ccc(C(N)=O)c(-c3ccc(Oc4ccccc4)cc3)n2)CC1 [Orelabrutinib]
Dose dependence of AUC and Cmax ([2]; 64 healthy subjects, single 20-400 mg or multiple doses for 14 days): increased proportionally
Cmax ([2]; healthy subjects, dose not stated): ~0.3 µg/mL

Reference: publication PMC9486086, “Development of a UPLC-MS/MS method for the determination of orelabrutinib in rat plasma and its application in pharmacokinetics” (Frontiers in Pharmacology, 2022)
